Test results reported in patent US20230357320A1, “HELICAL STAPLED PEPTIDES AND USES THEREOF” (FOG PHARMACEUTICALS, INC., priority 2020, published 2023).
Like-named read-outs stand apart in the source and are kept apart here. Starred links: 1 amine or outer side, 2 acyl side, 3 side chain; linkers in the order of their positions; H or OH if unused. Positions of bridges follow the written chain, without caps; N, C: chain ends. Non-standard residues stand in square brackets, D forms with d. Residues, ends and D or L forms follow the SMILES beside them. Primed or numbered codes have the meaning given here. *: point of attachment. PL3 = (R)-N-acetyl-2-(2'-propenyl)proline (alpha-allyl proline), stapling residue, C=CC[C@@]1(C(=O)*)CCCN1C(C)=O; PL3″ = (R)-2-(2'-propenyl)proline (alpha-allyl proline), N-acetylated, C=CC[C@@]1(C(=O)*)CCCN1C(C)=O; FITC = O=C1OC2(c3ccc(O)cc3Oc3cc(O)ccc32)c2ccc(NC(=S)*)cc21; X1 = O=C([C@]1(CC=[*:3])CCCN1[*:1])[*:2]; S5 = C=CCCC[C@](C)(N)C(=O)O; Nle = CCCC[C@H](N)C(=O)O; βAla = NCCC(=O)O

How the values were obtained:
[1] = for % Retention: PAMPA
Description: (§1) The synthesized peptides were first analyzed with a PAMPA assay. […] The PAMPA plate system is composed of two compartments, donor and acceptor, which are separated by a phospholipid-infused membrane. The amount of compound transferred from the acceptor well into the donor well over a period of incubation time is used to determine the passive permeability of a compound.
(§2) The two plates are separated by a membrane infused with phospholipids. […] The amount of compound transferred from one well to the other is usually quantified by reverse-phase HPLC-mass spectrometry.
(§3) Briefly, all PAMPA assays were performed using the commercially available PAMPA plate system from Corning, which uses a proprietary membrane composed of structured phospholipids. […] To prevent nonspecific peptide loss to the plates, the acceptor wells of the Corning PAMPA plates were blocked overnight with 5% nonfat milk with 0.1% Triton X-100 in Dulbecco's phosphate buffer saline (DPBS) at pH=7.4, followed by extensive washing prior to assays. The donor wells and membrane itself were not exposed to the milk/Triton solution. […] The PAMPA experiments described herein were performed using plates from Corning Lot #9112010, Lot #9112011 and Lot #7317005 (Corning Inc., Corning, New York, USA).
(§4) To set up PAMPA assays, the PAMPA plate system was equilibrated at room temperature for at least an hour before setting up the assay. The acceptor plate preincubated with milk blocking solution was washed with water, followed by DPBS buffer. 300 μL of 5% DMSO in DPBS at pH=7.4 was added to the pre-blocked acceptor plate, and 200 μL of 10M compounds made with 5% DMSO in DPBS at pH=7.4 was added to the donor plate. The donor plate with a lid was then carefully inserted into the acceptor plate with no bubbles formed at the interface of donor and acceptor plates. The PAMPA assay plate was covered with aluminum foil and placed in a 37° C. incubator for 5 hours. 10 M input solution of all compounds was diluted 20-fold to a final acetonitrile concentration of 50% before analyzing by reverse-phase HPLC and Q-Exactive plus mass spectrometer. At the end of 5 hours, PAMPA donor and acceptor plates were separated and diluted 20-fold and 2-fold respectively to a final acetonitrile concentration of 50%. The diluted solutions of PAMPA donor and acceptor plates were analyzed by reverse-phase HPLC and Q-Exactive plus mass spectrometer.
(§5) Pe measures the passive permeability of each compound tested in the PAMPA assay, whereas % retention measures the amount of compound retained in solution at the end of the assay compared to the input sample.

ERβ LBD = molecular target: T1, ERβ LBD (Homo sapiens, UniProt Q92731); assay: Competition fluorescence polarization (FP) binding assay with FITC-ERL4 probe
T1 construct: pET28a+ vector containing ERβ LBD (residues from 261 to 500) along with an N-terminal His6-yBBr-TEV tag; His6 (N); yBBr (N); TEV cleavage site (N); made in house; host or cells: E. coli BL21(DE3) pLysS
Description: In addition to the PAMPA assay, to study the affinity of the first-generation ProLock™ stapled peptides to the Estrogen receptor p ligand-binding domain (ERβ LBD), a fluorescence polarization (FP) binding assay in competition format was used in the presence of the endogenous ERβ LBD ligand estradiol. Competition Fluorescence Polarization (FP) assay was performed on the peptides to determine their half-maximal effective concentration (EC50). To do this, FITC labeled ERL4 peptide (FITC-βAla-His-Pro-Leu-Leu-Nle-Arg-Leu-Leu-Leu-Ser-Pro-CONH2) was synthesized to be used as a fluorescence probe based on existing literature (Fuchs et al., Journal of the American Chemical Society 2013, 135 (11), 4364-4371). Direct FP was performed in black 384-well plates (Corning). The final volume of each assay well was 40 μL with constant concentration of FITC labeled ERL4 peptide (10 nM) and variable concentrations of ERβ LBD protein.
ERβ LBD expression and purification was performed as follows. BL21(DE3) pLysS E. coli cells were transformed with a pET28a+ vector containing ERβ LBD (residues from 261 to 500) along with an N-terminal His6-yBBr-TEV tag. An overnight culture in 10 mL of TB media containing 50 μg/mL kanamycin was prepared from a single bacterial colony. The overnight culture was subsequently added to 1 liter of autoclaved TB media containing 50 μg/mL kanamycin and shaken at 37° C. until an OD of 0.6-0.8 was reached. IPTG was added to the culture and left shaking for 6 hours. Bacterial culture was pelleted and resuspended in lysis buffer. Resuspended bacterial culture was incubated at 0° C. for 10 minutes before sonication at 65% amplitude with 10-sec cycles using a Branson Sonifier. The lysate was then cleared by centrifugation at 8000×g for 20 min. […] The expected molecular weight of the ERβ LBD protein is 30.8 KDa, which molecular weight was confirmed by SDS PAGE analysis. Purified ERβ LBD was concentrated to 90 μM and was stored at −80° C. buffer.
Competition FP assays were also employed. These were performed in black 384-well plates (Corning). The final volume of each assay well was 80 μL containing constant concentrations of estradiol (1 μM) and FITC labeled ERL4 (10 nM). The ERβ LBD concentration was held constant (200 nM) while varying the concentration of ProLock stapled peptides (3-fold dilution from 10 μM). Upon addition of samples to each well, the plate was centrifuged for 10 seconds at 3000 rpm and incubated at 4° C. for 1 hour. FP measurements were performed at room temperature with excitation and emission wavelengths at 485 and 535 nm using a Clariostar microplate reader (BMG Labtech). Each plate had high and low polarization samples, which are used to normalize the assay data. The competition FP results were analyzed by Prism 7 (GraphPad). The non-linear regression analysis of the data was used to determine the half-maximal effective concentration (EC50) of ProLock stapled peptides. […] The normalized FP values shown in FIG. 6 are mean±S.E.M of at least four independent replicates.

[2] = CHI Log D measurement (chromatographic hydrophobicity index); conditions: pH 7.4
Description: Finally, to measure hydrophobicity, a CHI Log D measurement assay was employed. […] The retention time measurements were performed using reverse-phase HPLC and Q-Exactive mass spectrometer with Phenomenex Gemini C-18 column (3 uM, 50×3 mm). The reverse-phase chromatography was performed using a gradient of 10 mM ammonium acetate at pH=7.4 and acetonitrile solvents. Using the identical solvent setup, gradient, and flowrate, ProLock stapled peptides were injected onto the column to determine the tR of peptides. Using the calibration curve shown in FIG. 7, tR is converted into CHI. CHI was converted into CHI Log D using the following equation.

in vitro = assay: in vitro; set-up: dose or concentration left out as unconfirmed; conditions: PAMPA, pH 7.4, PAMPA Pe
Description: as §1, §2, §3, §4, §5

[3] = PAMPA (Parallel Artificial Membrane Permeability Assay); set-up: Papp at 5 h: dose or concentration left out as unconfirmed;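 note: Phospholipid-membrane PAMPA, donor and acceptor in DPBS pH 7.4 with 5% DMSO, 37 °C for 5 h, compound in each well quantified by reverse-phase HPLC-MS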
Description: as §1, §2, §3, §4, §5

[4] = molecular target: T2, Estrogen receptor β ligand-binding domain (ERβ LBD), residues 261 to 500, with N-terminal His6-yBBr-TEV tag (UniProt Q92731 261-500); assay: competition fluorescence polarization against FITC-ERL4 probe, 200 nM ERβ LBD, 1 µM estradiol
T2 construct: range 261-500; Expressed in E. coli BL21(DE3) pLysS from pET28a+, purified by Ni-NTA and SEC; Assays were run in the presence of estradiol; also called ER LBD; not shown: N-terminal His6-yBBr-TEV tag

[5] = molecular target: T2, Estrogen receptor β ligand-binding …; assay: competition fluorescence polarization; 200 nM ERβ LBD, 10 nM FITC-ERL4 probe, 1 µM estradiol
Description: Competition FP assays were also employed. These were performed in black 384-well plates (Corning). The final volume of each assay well was 80 μL containing constant concentrations of estradiol (1 μM) and FITC labeled ERL4 (10 nM). […] Upon addition of samples to each well, the plate was centrifuged for 10 seconds at 3000 rpm and incubated at 4° C. for 1 hour. […] Each plate had high and low polarization samples, which are used to normalize the assay data. The competition FP results were analyzed by Prism 7 (GraphPad).

[6] = molecular target: T2, Estrogen receptor β ligand-binding …; assay: direct fluorescence polarization; 10 nM probe, ERβ LBD titrated from 5 µM with estradiol; 1:1 binding model with Hill slope
Description: ERβ LBD protein (5 μM) premixed with estradiol (10 μM) was the highest concentration tested in the assay. The subsequent protein concentrations were three-fold dilutions from the highest concentration of 5 μM. Upon addition of samples to each well, the plate was centrifuged for 10 seconds at 3000 rpm and incubated at 4° C. for 1 hour. […] The direct FP results were analyzed by Prism 7 (GraphPad).

[7] = binding towards the ERβ LBD, read-out: EC50
[8] = reverse-phase HPLC, Phenomenex Gemini C-18 column
[9] = Table 4, binding to ER LBD, estradiol 1 μM, FITC-ERL4 10 nM, ERβ LBD 200 nM, mean ± S.E.M, at least four replicates, read-out: EC50

T2 sequence (Q92731 261-500): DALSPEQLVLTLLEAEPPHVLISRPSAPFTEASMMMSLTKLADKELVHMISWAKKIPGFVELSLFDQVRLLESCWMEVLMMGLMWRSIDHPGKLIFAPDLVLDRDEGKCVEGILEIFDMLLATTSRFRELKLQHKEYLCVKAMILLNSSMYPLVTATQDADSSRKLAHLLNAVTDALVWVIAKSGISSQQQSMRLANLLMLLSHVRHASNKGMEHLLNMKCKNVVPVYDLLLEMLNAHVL

CNC(=O)[C@H](CC(=O)O)NC(=O)[C@H](CC(=O)O)NC(=O)[C@H](CC(C)C)NC(=O)[C@H](CC(C)C)NC(=O)[C@H](Cc1ccc(O)cc1)NC(=O)[C@]1(C)CCCC=CC[C@]2(CCCN2C(C)=O)C(=O)N[C@@H](CC(C)C)C(=O)N[C@@H](CC(C)C)C(=O)N1 [PLL5-2, Ac-PL3-Leu-Leu-S5-Tyr-Leu-Leu-Asp-Asp-NHMe] (Ac-[X1]LL[S5]YLLDD-NHMe; staple 1-4)
PAMPA Pe [1]: 1.6 ± 0.1 (×10^−6) cm/sec | % Retention [1]: 97 ± 2% | EC50 (ERβ LBD; [7]): 0.8 to 1.3 µM | chromatographic logD [2, 8]: 1.7 | Papp at 5 h (in vitro): 1.6 ± 0.1 ×10⁻⁶ cm/s

CNC(=O)[C@H](Cc1ccc(O)cc1)NC(=O)[C@H](CC(C)C)NC(=O)[C@H](CC(C)C)NC(=O)[C@H](Cc1c[nH]cn1)NC(=O)[C@H](CCCNC(=N)N)NC(=O)[C@]1(C)CCCC=CC[C@]2(CCCN2C(C)=O)C(=O)N[C@@H](CC(C)C)C(=O)N[C@@H](CC(C)C)C(=O)N1 [PLL4-2, Ac-PL3-Leu-Leu-S5-Arg-His-Leu-Leu-Tyr-NHMe] (Ac-[X1]LL[S5]RHLLY-NHMe; staple 1-4)
% Retention [1]: 43 ± 2% | EC50 (ERβ LBD; [7]): 0.4 µM | chromatographic logD [2, 8]: 2.7 | Papp at 5 h (in vitro): ≤ 0.1 ×10⁻⁶ cm/s

CNC(=O)[C@H](CC(=O)O)NC(=O)[C@H](CC(C)C)NC(=O)[C@H](CC(C)C)NC(=O)[C@H](Cc1ccc(O)cc1)NC(=O)[C@H](CCCNC(=N)N)NC(=O)[C@]1(C)CCCC=CC[C@]2(CCCN2C(C)=O)C(=O)N[C@@H](C)C(=O)N[C@@H](CC(C)C)C(=O)N1 [PLL4-4, Ac-PL3-Ala-Leu-S5-Arg-Tyr-Leu-Leu-Asp-NHMe] (Ac-[X1]AL[S5]RYLLD-NHMe; staple 1-4)
PAMPA Pe (text) [1]: 0.3-0.7 ×10^−6 cm/sec | % Retention [1]: 71 ± 2% | EC50 (ERβ LBD; Table 2, binding to ER LBD, estradiol 1 μM, FITC-ERL4 10 nM, ERβ LBD 200 nM, mean ± S.E.M, at least four replicates, read-out: EC50): 7.9 ± 0.4 µM | chromatographic logD [2, 8]: 2.3 | Papp at 5 h (in vitro): 0.5 ± 0.1 ×10⁻⁶ cm/s

CNC(=O)[C@H](CC(=O)O)NC(=O)[C@H](Cc1c[nH]cn1)NC(=O)[C@H](CC(C)C)NC(=O)[C@H](CC(C)C)NC(=O)[C@H](CCCNC(=N)N)NC(=O)[C@]1(C)CCCC=CC[C@]2(CCCN2C(C)=O)C(=O)N[C@@H](CC(C)C)C(=O)N[C@@H](CC(C)C)C(=O)N1 [PLL7-9, Ac-PL3-Leu-Leu-S5-Arg-Leu-Leu-His-Asp-NHMe] (Ac-[X1]LL[S5]RLLHD-NHMe; staple 1-4)
PAMPA Pe [1]: 1.1 ± 0.2 (×10^−6) cm/sec | PAMPA Pe (text) [1]: exceeding 1 ×10^−6 cm/sec | % Retention [1]: 85 ± 4% | EC50 (ERβ LBD; [9]): 1.3 ± 0.1 µM | EC50 (ERβ LBD; [7]): 0.8 to 1.3 µM | chromatographic logD [2, 8]: 2.1 | Papp at 5 h (in vitro): 1.1 ± 0.2 ×10⁻⁶ cm/s

CNC(=O)[C@H](CC(=O)O)NC(=O)[C@H](CC(=O)O)NC(=O)[C@H](CC(C)C)NC(=O)[C@H](CC(C)C)NC(=O)[C@H](Cc1ccc(O)cc1)NC(=O)[C@]1(C)CCCC=CC[C@]2(CCCN2C(C)=O)C(=O)N[C@@H]([C@@H](C)O)C(=O)N[C@@H](CC(C)C)C(=O)N1 (single isomer, unassigned) [PLL7-1, Ac-PL3-Thr-Leu-S5-Tyr-Leu-Leu-Asp-Asp-NHMe]
PAMPA Pe (text) [1]: 2.1e-06 cm/s | % Retention [1]: 114 ± 3% | EC50 (ERβ LBD; [9]): > 10 µM | chromatographic logD [2]: 1 | Papp at 5 h (in vitro): 2.1 ± 0.4 ×10⁻⁶ cm/s

CNC(=O)[C@H](Cc1ccc(O)cc1)NC(=O)[C@H](Cc1c[nH]cn1)NC(=O)[C@H](CC(C)C)NC(=O)[C@H](CC(C)C)NC(=O)[C@H](CCCNC(=N)N)NC(=O)[C@]1(C)CCCC=CC[C@]2(CCCN2C(C)=O)C(=O)N[C@@H](CC(C)C)C(=O)N[C@@H](CC(C)C)C(=O)N1 [PLL4-3, Ac-PL3-Leu-Leu-S5-Arg-Leu-Leu-His-Tyr-NHMe] (Ac-[X1]LL[S5]RLLHY-NHMe; staple 1-4)
EC50 (ERβ LBD): 0.7 µM | Papp at 5 h ([3]; PAMPA, pH 7.4): < 0.1 ×10⁻⁶ cm/s | % Retention ([3]; Table 5, compound retained in solution at the end of the PAMPA assay compared to the input sample): 73 ± 4% | chromatographic logD [2, 8]: 2.7

B1: PLL5-5 (Ac-PL3-Thr-Leu-S5-Tyr-Leu-Leu-Asp-NHMe) (peptide)
peptide: Ac-[PL3]TL[S5]YLLD-NHMe
modifications: staple 1-4; also: staple isomer 2, cis olefin
notes: Second-generation ProLock stapled peptide; X marks non-standard residues
binding result [4]: no binding (tested: peptide titrated 3-fold from 10 µM)

B2: PLL5-6 (Ac-PL3-Lys-Leu-S5-Tyr-Leu-Leu-Asp-NHMe) (peptide)
peptide: Ac-[PL3]KL[S5]YLLD-NHMe
modifications: staple 1-4; also: staple isomer 2, cis olefin
notes: as for B1
binding result [4]: no binding (tested: peptide titrated 3-fold from 10 µM)

B3: PLL5-11 (Ac-PL3-Leu-Leu-S5-Tyr-Leu-Leu-His-NHMe) (peptide)
peptide: Ac-[PL3]LL[S5]YLLH-NHMe
modifications: staple 1-4; also: staple isomer 2, cis olefin
notes: as for B1
binding result [4]: no binding (tested: peptide titrated 3-fold from 10 µM)

B4: PLL5-12 (Ac-PL3-Leu-Leu-S5-Tyr-Leu-Leu-Gln-NHMe) (peptide)
peptide: Ac-[PL3]LL[S5]YLLQ-NHMe
modifications: staple 1-4; also: staple isomer 2, cis olefin
notes: as for B1
EC50 [5]: 2 µM

B5: PLL5-1 (Ac-PL3-Leu-Leu-S5-Tyr-Leu-Leu-Asp-Tyr-NHMe) (peptide)
peptide: Ac-[PL3″]LL[S5]YLLDY-NHMe
modifications: staple 1-4; also: staple isomer 2, cis olefin
notes: as for B1
EC50 [5]: 3.9 µM

B6: PLL5-3 (Ac-PL3-Leu-Leu-S5-Tyr-Leu-Leu-Gln-Tyr-NHMe) (peptide)
peptide: Ac-[PL3]LL[S5]YLLQY-NHMe
modifications: staple 1-4; also: staple isomer 2, cis olefin
notes: as for B1
EC50 [5]: 0.5 µM

B7: PLL7-1 (Ac-PL3-Thr-Leu-S5-Tyr-Leu-Leu-Asp-Asp-NHMe) (peptide)
peptide: Ac-[PL3]TL[S5]YLLDD-NHMe
modifications: staple 1-4; also: staple isomer 2, cis olefin
notes: as for B1
binding result [4]: no binding (tested: peptide titrated 3-fold from 10 µM)

B8: PLL5-2 (Ac-PL3-Leu-Leu-S5-Tyr-Leu-Leu-Asp-Asp-NHMe) (peptide)
peptide: Ac-[PL3]LL[S5]YLLDD-NHMe
modifications: staple 1-4; also: staple isomer 2, cis olefin
notes: as for B1
EC50 [5]: 1.2 µM

B9: PLL7-8 (Ac-PL3-Ala-Leu-S5-Tyr-Leu-Leu-Gln-Asp-NHMe) (peptide)
peptide: Ac-[PL3]AL[S5]YLLQD-NHMe
modifications: staple 1-4; also: staple isomer 2, cis olefin
notes: as for B1
binding result [4]: no binding (tested: peptide titrated 3-fold from 10 µM)

B10: FITC labeled ERL4 peptide (FITC-βAla-His-Pro-Leu-Leu-Nle-Arg-Leu-Leu-Leu-Ser-Pro-CONH2) (peptide)
peptide: {FITC}-[βAla]HPLL[Nle]RLLLSP-NH2
notes: Fluorescent probe of the FP assays; also called FITC-ERL4; FITC-ERL4 probe
Kd [6]: 0.16 µM

B11: PLL7-20 (Ac-PL3-Ala-Leu-S5-His-Leu-Leu-Asn-NHMe) (peptide)
peptide: Ac-[PL3]AL[S5]HLLN-NHMe
modifications: staple 1-4; also: staple isomer 2, cis olefin
notes: as for B1
binding result [4]: no binding (tested: peptide titrated 3-fold from 10 µM)
